Source: US10428030B2, “Heterocycle derivatives and their use for the treatment of CNS disorders” (Trillium Therapeutics Inc., priority 2015, dated 2019)

How the values were obtained:
Assay type in all cases: in vivo
[1] = test system: mice; assay: Intravenous Metrazol Seizure Threshold Test (i.v. MET); conditions: mouse, ip, i.v. Metrazol infusion (FIG. 1)
Method: The iv-Met test provides a measure of a test substance's ability to raise or lower seizure threshold. Two doses of the test compound are usually employed in this test, the MES ED50 and the TD50 determined following ip quantification testing in mice. Randomly selected mice are injected intraperitoneally 2 minutes apart with either the vehicle or the two test drug doses, maintaining the same order of dosing until 30 mice have been injected. At the previously determined TPE, 0.5% heparinized Metrazol solution is infused at a constant rate of 0.34 ml/min into a lateral tail vein of an unrestrained mouse. Infusion is by means of a Sage syringe pump (model 341 A) and a 10 ml B-D plastic syringe connected to a length of No 20 P.E. tubing. A 27 gauge stainless steel needle with the hub removed is connected to the tubing and inserted into a vein, bevel side up and secured to the tail by a narrow piece of adhesive tape. For the placement of the needle, the mouse is restrained in a cone shaped device with only the tail exposed. The rate selector is set on 4, and the switch is set at ml/min. […] The time in seconds from the start of the infusion to the appearance of the “first twitch” and the onset of sustained clonus is recorded. […]
The mean and standard error for each of the 3 groups and the significance of the difference between the test groups and the control are calculated.

[2] = test system: hippocampal kindled rat; assay: Hippocampal kindled rat model (focal seizures); conditions: <300 mg/kg i.p., vs vehicle controls
Source text: Hippocampal Kindled Rat Test is designed to quantify the anticonvulsant effects of a test compound in the kindled rat model. Rats treated by i.p. injection.
The Kindled Rat is a model of temporal lobe epilepsy, which is the most common and drug-resistant type of adult focal epilepsy (Morimoto et al., 2004). […] This acquired hyper-responsiveness is called kindling and results not only in increased seizure responses but also in an elongation of the after-discharge duration seen on an EEC recording. Electrodes are implanted into the hippocampus of anesthetized rats, which are then allowed to recover for one week. […] At each time point, the behavioral seizure score (BSS) and after-discharge duration (ADD) is recorded. The BSS's are scored according to the following criteria (Racine, Electroencephalogr Clin Neurophysiol 1972, 32:281-94): Stage 1—mouth and facial clonus; Stage 2—stage 1 plus head nodding; Stage 3—stage 2 plus forelimb clonus; Stage 4—stage 3 plus rearing; and Stage 5—stage 4 plus repeated rearing and falling.
The afterdischarge threshold (ADT) can also be measured in the kindled rat. […] The individual rat ADT is then determined at varying times (i.e., 0.25, 1, 2, and 4 hr) after drug administration.

[3] = test system: amygdala kindled rat; assay: Amygdala kindled rat model (focal seizures); conditions: <100 mg/kg i.p., vs vehicle controls
Source text: Amygdala kindling model is an animal model for complex partial seizures, which is the most common type of epilepsy in adults and is often drug resistant. Exemplary compounds of the application were effective in this model.

[4] = test system: corneal kindled mice; assay: Corneal kindling mouse model (focal seizures)
Source text: Mice are kindled electrically with 3 sec stimulation, 8 mA, 60 Hz, and coneal electrodes to a criterion of 10 consecutive Stage 5 seizures (facial clonus and head nodding progressing to forelimb clonus, and finally rearing and falling accompanied by a generalized clonic seizure as described by Racine (Racine R J. Neurophysiol., 1972. 32: p. 281-294) Stage 5 is generally reached after twice daily stimulation for 8 days. With continued stimulation once a day, animals usually progress to a reproducible Stage 5 after 10-14 additional days. At least 72 hours after the mice have been kindled, the test substance is administered either i.p. or p.o. and, at the previously determined TPE, each animal is given the electrical stimulus indicated above. Following stimulation, the animals are observed for the presence or absence of the rearing and falling criteria of a Stage 5 seizure. Treated animals not displaying a Stage 3, 4, or 5 seizure are considered protected. The dose of the test substance is varied between the limits of 0 and 100% efficacy, and the ED50 and 95% confidence intervals calculated by probit analysis. Mean values and the S.E.M. are calculated for the length of clonus and seizure duration and p values are determined by the Student's t-test.

## O=C1COc2cc(OCc3ccc(OC(F)F)cc3)ccc2N1 [Compound I(B)]
[1]
  effect on seizure threshold: dose-dependently increased the seizure threshold
[2]
  suppression of fully kindled (stage 5) seizures: dose related suppression of fully kindled (stage 5) seizures
[3]
  suppression of fully kindled (stage 5) seizures: dose related suppression of fully kindled (stage 5) seizures
[4]; Mus musculus, corneal kindled mice, read-out: ED50, suppression of fully kindled (stage 5) seizures
  ED50: 119 ± 1.81 mg/kg
[4]; dose 35 mg/kg
  Average Seizure: 5
  N/F (number of animals active over the number tested): 0/8
[4]; dose 70 mg/kg
  Average Seizure: 4.6
  N/F (number of animals active over the number tested): 1/8
[4]; dose 140 mg/kg
  Average Seizure: 2.4
  N/F (number of animals active over the number tested): 5/8
[4]; dose 300 mg/kg
  Average Seizure: 0.8
  N/F (number of animals active over the number tested): 8/8
[4]; vs vehicle controls
  effect on fully kindled (stage 5) seizures: dose related suppression of fully kindled (stage 5) seizures
